Values of other authors in patent US20200147085A1, “COMPOSITIONS AND METHODS FOR TREATMENT OF PSYCHIATRIC DISORDERS” (priority 2007, published 2020).
Values belong to the molecule of their own block, whether it stands above or below them.

Experiments:
[1] = healthy controls, single oral dose of 400 mg of SAM
[2] = parenterally administered SAM
[3] = system: healthy volunteers; conditions: daily iv infusion for 7 days; not supine
[4] = system: chronic renal failure patients; conditions: 4 grams daily, with 5 mg folate and 50 mg pyridoxine daily; not fasting levels
[5] = rats, intraperitoneal
[6] = system: schizophrenic patients; conditions: 10-20 grams/day

Compound: C[S+](CC[C@H](N)C(=O)O)C[C@H]1O[C@@H](n2cnc3c(N)ncnc32)[C@H](O)[C@@H]1O (stereo partly drawn) [SAM, S-adenosylmethionine]
- half-life of SAM [1]: 1.7 ± 0.3 h
- SAM levels in cerebral spinal fluid [2]: about 130 % of controls
- decrease in standing heart rate [3]: 6 beats/minute

Compound: C[N+](C)(C)CC(=O)[O-] [betaine, trimethylglycine]
- decrease of post-methionine loading homocysteine levels [4]: 18%

- schizophrenic patients with worsened psychosis [6]: about 40%
Compound: CSCC[C@H](N)C(=O)O [methionine, L-methionine]
- SAM in brain [5]: about 130 % of controls
